In ChEMBL document CHEMBL1649542, “Outer membrane protein STM3031 (Ail/OmpX-like protein) plays a key role in the ceftriaxone resistance of Salmonella enterica serovar Typhimurium” (2009):
Converted amounts (≈) assume the structure as drawn.

How the values were obtained:
Assay type in all cases: functional, Salmonella enterica subsp. enterica serovar Typhimurium
[1] = test system: Salmonella typhimurium; assay: Antibacterial activity against Salmonella enterica serovar Typhimurium 01-4 by CLSI M7-A7 agar dilution method
[2] = test system: Salmonella typhimurium; assay: Antibacterial activity against Salmonella enterica serovar Typhimurium R200 expressing Outer membrane protein STM3031 by CLSI M7-A7 agar dilution method
[3] = test system: Salmonella typhimurium; assay: Antibacterial activity against Salmonella enterica serovar Typhimurium R200 expressing stm3031 gene deletion mutant by CLSI M7-A7 agar dilution method
[4] = test system: Salmonella typhimurium; assay: Antibacterial activity against Salmonella enterica serovar Typhimurium 01-4 by Etest method
[5] = test system: Salmonella typhimurium; assay: Antibacterial activity against Salmonella enterica serovar Typhimurium R1 expressing Outer membrane protein STM3031 after serial passage by Etest method
[6] = test system: Salmonella typhimurium; assay: Antibacterial activity against Salmonella enterica serovar Typhimurium R5 expressing Outer membrane protein STM3031 after serial passage by Etest method
[7] = test system: Salmonella typhimurium; assay: Antibacterial activity against Salmonella enterica serovar Typhimurium R10 expressing Outer membrane protein STM3031 after serial passage by Etest method
[8] = test system: Salmonella typhimurium; assay: Antibacterial activity against Salmonella enterica serovar Typhimurium R25 expressing Outer membrane protein STM3031 after serial passage by Etest method
[9] = test system: Salmonella typhimurium; assay: Antibacterial activity against Salmonella enterica serovar Typhimurium R70 expressing Outer membrane protein STM3031 after serial passage by Etest method
[10] = Salmonella enterica subsp. enterica serovar Typhimurium

Row | Compound | MIC [1] [µg/mL] | MIC [2] [µg/mL] | MIC [3] [µg/mL] | other results
1 | CCn1cc(C(=O)O)c(=O)c2ccc(C)nc21 [NALIDIXIC ACID] | 4 (≈ 17.2 µM) | 1 (≈ 4.31 µM) | 0.5 (≈ 2.15 µM) | –
2 | CO[C@H]1/C=C/O[C@@]2(C)Oc3c(C)c(O)c4c(O)c(c(/C=N/N5CCN(C)CC5)c(O)c4c3C2=O)NC(=O)/C(C)=C\C=C\[C@H](C)[C@H](O)[C@@H](C)[C@@H](O)[C@@H](C)[C@H](OC(C)=O)[C@@H]1C [RIFAMPIN] | 16 (≈ 19.4 µM) | 16 (≈ 19.4 µM) | 16 (≈ 19.4 µM) | –
3 | GENTAMICIN | – | – | – | MIC [1, 10]: 1 µg/mL; MIC [2, 10]: 1 µg/mL; MIC [3, 10]: 1 µg/mL
4 | CN(C)[C@@H]1C(O)=C(C(N)=O)C(=O)[C@@]2(O)C(O)=C3C(=O)c4c(O)cccc4[C@@](C)(O)[C@H]3C[C@@H]12 [TETRACYCLINE] | 8 (≈ 18 µM) | 16 (≈ 36 µM) | 4 (≈ 9 µM) | –
5 | CO[C@@H]1[C@@H](OC(N)=O)[C@@H](O)[C@H](Oc2ccc3c(O)c(NC(=O)c4ccc(O)c(CC=C(C)C)c4)c(=O)oc3c2C)OC1(C)C [NOVOBIOCIN] | 256 (≈ 418 µM) | 256 (≈ 418 µM) | 128 (≈ 209 µM) | –
6 | CN[C@@H]1[C@H](O[C@H]2[C@H](O[C@H]3[C@H](O)[C@@H](O)[C@H](N=C(N)N)[C@@H](O)[C@@H]3N=C(N)N)O[C@@H](C)[C@]2(O)C=O)O[C@@H](CO)[C@H](O)[C@H]1O [STREPTOMYCIN] | 128 (≈ 220 µM) | 256 (≈ 440 µM) | 128 (≈ 220 µM) | –
7 | Cn1nnnc1SCC1=C(C(=O)O)N2C(=O)[C@@H](NC(=O)[C@H](O)c3ccccc3)[C@H]2SC1 [CEFAMANDOLE] | 2 (≈ 4.32 µM) | > 256 | 64 (≈ 138 µM) | –
8 | CCN1CCN(C(=O)N[C@@H](C(=O)N[C@@H]2C(=O)N3[C@@H]2SC(C)(C)[C@@H]3C(=O)O)c2ccccc2)C(=O)C1=O [PIPERACILLIN] | 256 (≈ 495 µM) | > 256 | – | –
9 | CN[C@@H]1[C@H](O)[C@H](NC)[C@H]2O[C@@]3(O)C(=O)C[C@@H](C)O[C@H]3O[C@@H]2[C@H]1O [SPECTINOMYCIN] | > 256 | > 256 | – | –
10 | CO/N=C(\C(=O)N[C@@H]1C(=O)N2C(C(=O)O)=C(CSc3nc(=O)c(O)nn3C)CS[C@H]12)c1csc(N)n1 [CEFTRIAXONE] | 0.047 (≈ 0.0847 µM) | > 256 | 4 (≈ 7.21 µM) | MIC [4]: 0.047 µg/mL (≈ 0.0847 µM); MIC [5]: 2 µg/mL (≈ 3.61 µM); MIC [6]: 6 µg/mL (≈ 10.8 µM); MIC [7]: 12 µg/mL (≈ 21.6 µM); MIC [8]: 24 µg/mL (≈ 43.3 µM); MIC [9]: 64 µg/mL (≈ 115 µM)
11 | CC(=O)OCC1=C(C(=O)O)N2C(=O)[C@@H](NC(=O)Cc3cccs3)[C@H]2SC1 [CEPHALOTHIN] | 4 (≈ 10.1 µM) | > 256 | 128 (≈ 323 µM) | –
12 | CC[C@H]1OC(=O)[C@H](C)[C@@H](O[C@H]2C[C@@](C)(OC)[C@@H](O)[C@H](C)O2)[C@H](C)[C@@H](O[C@@H]2O[C@H](C)C[C@H](N(C)C)[C@H]2O)[C@](C)(O)C[C@@H](C)C(=O)[C@H](C)[C@@H](O)[C@]1(C)O [ERYTHROMYCIN] | 128 (≈ 174 µM) | 4 (≈ 5.45 µM) | 2 (≈ 2.73 µM) | –
